We go through four molecules from patent US5028596A, “1-(β-D-arabinofuranosyl)-5-propynyluracil for treatment of VZV infections” (Burroughs Wellcome Co., priority 1987, dated 1991).

Bounds are passed on as bounds.

As a reminder, the IC50 is the concentration at which inhibition is half-maximal.

Series [1] concerns vaccinia and herpes simplex. To be noted: in vitro, literature; cited from earlier work.
Series [2] relates to Varicella zoster virus (VZV). Kind of series: VZV plaque reduction assay in MRC5 cells (without agarose overlay). In kind it is cell-based. The procedure: (§1) Human cytomegalovirus (HCMV) is assayed in monolayers of either MRC5 cells (human embryonic lung) or Detroit 532 cells (human foreskin fibroblasts) in multiwell trays. Activity of compounds is determined in the plaque reduction assay, in which a cell monolayer is infected with a suspension of HCMV, and then overlaid with nutrient agarose in the form of a gel to ensure that there is no spread of virus throughout the culture. A range of concentrations of compound of known molarity was incorporated in the nutrient agarose overlay. Plaque numbers of each concentration are expressed as percentage of the control and dose-response curve is drawn. From this curve the 50% inhibitory concentration (IC50) is estimated. Varicella zoster virus (VZV) is assayed in MRC5 cells by a similar method of that of MCMV with the omission of the agarose overlay.
A general note: Plaque reduction counts the foci of infection that form in a cell layer.

For series [3], the system named is Human cytomegalovirus (HCMV). Kind of series: HCMV plaque reduction assay in MRC5 or Detroit 532 cells. Format: cell-based. As to the method:
as §1, with “estimated.” for “estimated. Varicella zoster virus (VZV) is assayed in MRC5 cells by a similar method of that of MCMV with the omission of the agarose overlay.”

Series [4] in a line: Cell growth inhibition assay (cell toxicity, tetrazolium dye uptake). To be noted: monkey; Vero cells; 50% inhibition of cell viability at 96 hours; read-out: CCID50 at 96 hr. Format: cell-based. The procedure:
Cell toxicity is assessed in a cell growth inhibition assay. Subconfluent cultures of Vero cells grown on 96-well microtiter dishes are exposed to different dilutions of drug, and cell viability determined daily on replicate cultures using uptake of a tetrazolium dye (MIT). The concentration required for a 50% inhibition of cell viability at 96 hours is termed CCID50.

As for `C#Cc1cn([C@H]2C[C@H](O)[C@@H](CO)O2)c(=O)[nH]c1=O` [2'-deoxy-5-ethynyluridine], the “antiviral activity against vaccinia and herpes simplex (in words)” value in series [1] was “did not demonstrate any effect of use in human medicinal chemotherapy”. Take `CC#Cc1cn([C@H]2C[C@H](O)[C@@H](CO)O2)c(=O)[nH]c1=O` [Example 1, 2'-Deoxy-5-propynyluridine]: the concentration for half-maximal inhibition (IC50) in series [2] (Human alphaherpesvirus 3, MRC5, MRC5 cells, plaque reduction) was 1 µM; in series [3] (Human betaherpesvirus 5, MRC5, MRC5 or Detroit 532 cells, plaque reduction) it was greater than 16 µM. Further, the “activity against VZV (in words)” value in series [2] (qualitative statement) is recorded as “potent anti-VZV activity”. In addition, in series [4], the CC50 at 96 h is greater than 500 µM. For the molecule `C#Cc1cn([C@H]2C[C@H](O)[C@@H](CO)O2)c(=O)nc1N` [Example 3, 2'-Deoxy-5-ethynylcytidine], in series [3] (qualitative statement), the “activity against CMV (in words)” value is recorded as “high activity against CMV”. With `C#Cc1cn([C@H]2C[C@H](OC(C)=O)[C@@H](COC(C)=O)O2)c(=O)nc1N` [Example 2, 2'-Deoxy-3',5'-di-O-acetyl-5-ethynylcytidine], the CC50 at 96 h in series [4] was greater than 500 µM.
